The source of these data is patent US20120214847A1, “2-[1-PHENYL-5-HYDROXY-4a-SUBSTITUTED-HEXAHYDROCYCLOPENTA[F]INDAZOL-5-YL]ETHYL PHENYL DERIVATIVES AS GLUCOCORTICOID RECEPTOR LIGANDS” (Merck Sharp & Dohme Corp., priority 2009, published 2012).

The test has as its target T1, human GR (Homo sapiens, UniProt P04150).
T1 construct: naturally expresses the human GR; endogenous in cells
T1 sequence (P04150 1-777): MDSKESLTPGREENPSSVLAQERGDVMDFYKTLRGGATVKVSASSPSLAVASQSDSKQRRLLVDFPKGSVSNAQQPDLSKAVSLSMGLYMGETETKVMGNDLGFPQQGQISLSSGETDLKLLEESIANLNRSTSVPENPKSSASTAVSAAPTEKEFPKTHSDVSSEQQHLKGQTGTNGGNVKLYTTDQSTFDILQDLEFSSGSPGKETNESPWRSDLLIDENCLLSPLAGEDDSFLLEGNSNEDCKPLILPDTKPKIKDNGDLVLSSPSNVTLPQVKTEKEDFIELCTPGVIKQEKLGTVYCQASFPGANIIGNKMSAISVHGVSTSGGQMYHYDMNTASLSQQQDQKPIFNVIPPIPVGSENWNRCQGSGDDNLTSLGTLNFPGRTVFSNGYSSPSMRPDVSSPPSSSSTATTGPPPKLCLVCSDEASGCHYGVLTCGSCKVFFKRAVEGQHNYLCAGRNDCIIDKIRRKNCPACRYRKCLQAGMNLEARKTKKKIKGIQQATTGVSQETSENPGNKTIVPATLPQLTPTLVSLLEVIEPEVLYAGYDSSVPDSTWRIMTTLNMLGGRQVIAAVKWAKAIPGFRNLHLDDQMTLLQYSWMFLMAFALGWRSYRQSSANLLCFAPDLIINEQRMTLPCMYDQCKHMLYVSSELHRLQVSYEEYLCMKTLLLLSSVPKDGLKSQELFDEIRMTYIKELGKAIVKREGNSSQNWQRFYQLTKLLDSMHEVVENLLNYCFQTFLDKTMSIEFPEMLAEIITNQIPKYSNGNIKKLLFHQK
Kind of test: Trans-activation modulation of glucocorticoid receptor (GRAMMER), MMTV-LUC reporter in A549 cells. It counts as cell-based. As to conditions: for Emax: A549, A549 cells, read-out: Transactivation A549 Cells Grammer Emax (%); for EC50: IP = inflection point, read-out: Transactivation A549 Cells Grammer IP. The source says:
Trans-Activation Modulation of Glucocorticoid Receptor (GRAMMER)
This assay assesses the ability of test compounds to control transcription from the MMTV-LUC reporter gene in lung adenocarcinoma A549 cells or HeLa cells, a human […] cell line that naturally expresses the human GR. The assay measures induction of a modified MMTV LTR/promoter linked to the LUC reporter gene.
The routine transient assay consists of plating 7,000-25,000 cells/well of a white, clear-bottom 96-well plate. Alternatively, 384-well plates can be used at a cell concentration of 10,000/well. The media that the cells are plated in is “exponential growth medium” which consists of phenol red-free RPMI1640 containing 10% FBS, 4 mM L-glutamine, 20 mM HEPES, 10 ug/mL human insulin, and 20 ug/mL gentamicin. Incubator conditions are 37° C. and 5% C02. The transfection is done in batch mode. The cells are trypsinized and counted to the right cell number in the proper amount of fresh media. It is then gently mixed with the FuGene6/DNA 25 mix and plated onto the 96 or 384-well plate, all the wells receive 100 uL or 40 uL, respectively, of medium+lipid/DNA complex then incubated 37° C. overnight. The transfection cocktail consists of serum-free OptiMEM, FuGene6 reagent and DNA. The manufacturer's (Roche Biochemical) protocol for cocktail setup is as follows: The lipid to DNA ratio is approximately 2.5:1 and the incubation time is 20 min at room temperature. Sixteen to 24 h after transfection, the cells are treated with dexamethasone to a final concentration of 10 nM as well as the compound of interest, such that final DMSO (vehicle) concentration is equal to or less than 1%. Each plate also contains samples that are treated with 10 nM dexamethasone alone, which is used as the 100% activity control. The cells are exposed to the compounds for 24 h. After 24 h, the cells are lysed by a Promega cell culture lysis buffer for approximately 30 min and then the luciferase activity in the extracts is assayed in the 96-well format luminometer. In 384 well format, Steady-Glo (Promega) or Steady-Lite (PerkinElmer) can be used by adding an equal volume of reagent to the media present in each well. Activity induced by 10 nM dexamethasone alone is set at 100% activity. Antagonist activity is calculated by determining the decrease in dexamethasone-induced activity in response to compound treatment relative to samples that were treated with dexamethasone alone. Results are expressed as % inhibition of 10 nM dexamethasone activity or as fold of 10 nM dexamethasone activity. This transactivation assay can be performed in an agonist and antagonist mode to identify these different activities.
Activity of test compounds is calculated as the Emax relative to the activity obtained with 300 nM dexamethasone. […] The exemplified tissue selective glucocorticoid receptor modulators of the present invention display agonist activity in this assay of greater than 5% and less than 100%, and maximal transactivation activity less then maximal transrepression activity. The action of compounds is also tested in an antagonist mode (Anti-GRAMMER) in which the cells are treated with medium containing an agonist such as 10 nM DEX and the ability of agents to inhibit the activation by an agonist is measured.

Where [1] appears, read: Emax relative to the activity obtained with 300 nM dexamethasone.

On to `CC[C@]12Cc3cnn(-c4ccc(F)cc4)c3C=C1CC[C@@]2(O)CCc1ccccc1S(C)(=O)=O` [Example 42, (4aS,5R)-4a-Ethyl-1-(4-fluorophenyl)-5-{2-[2-(methylsulfonyl)phenyl]ethyl}-1,4,4a,5,6,7-hexahydrocyclopenta[f]indazol-5-ol], for which the Emax under setting [1] stood at 34%. Besides, the EC50 (A549 cells) came out at 16 nM.

For `CC[C@]12Cc3cnn(-c4ccc(F)cc4)c3C=C1CC[C@@]2(O)CCc1ccccc1C(O)C(N)=O` (stereo partly drawn) [Example 26, 2-(2-{2-[(4aS,5R)-4a-Ethyl-1-(4-fluorophenyl)-5-hydroxy-1,4,4a,5,6,7-hexahydrocyclopenta[f]indazol-5-yl]ethyl}phenyl)-2-hydroxyacetamide], for the setting “A549 cells, Emax relative to the activity obtained with 300 nM dexamethasone”, the “Transactivation A549 Cells Grammer Emax (%)” value came out at 58%. For the same compound, under “A549 cells”, the EC50 stood at 161 nM.

Turning to `CC[C@]12Cc3cnn(-c4ccc(F)cc4)c3C=C1CC[C@@]2(O)CC(O)c1ncccc1Cl` (stereo partly drawn) [Example 70, (4aS,5R)-5-[2-(3-Chloropyridin-2-yl)-2-hydroxyethyl]-4a-ethyl-1-(4-fluorophenyl)-1,4,4a,5,6,7-hexahydrocyclopenta[f]indazol-5-ol], the Emax under setting [1] came to 31%. The EC50 (A549 cells) was 83 nM.

In the case of `N#Cc1c(F)cccc1CC[C@]1(O)CCC2=Cc3c(cnn3-c3ccccc3)C[C@@]21C1CC1` [Example 28, 2-{2-[(4aR,5R)-4a-Cyclopropyl-5-hydroxy-1-phenyl-1,4,4a,5,6,7-hexahydrocyclopenta[f]indazol-5-yl]ethyl}-6-fluorobenzonitrile], the Emax under setting [1] turned out to be 8%. For the same compound, under “A549 cells”, the EC50 is 32 nM.

For `NC(=O)c1ccccc1CC[C@]1(O)CCC2=Cc3c(cnn3-c3ccc(F)cc3)C[C@@]21C1CC1` [Example 23, 2-{2-[(4aR,5R)-4a-Cyclopropyl-1-(4-fluorophenyl)-5-hydroxy-1,4,4a,5,6,7-hexahydrocyclopenta[f]indazol-5-yl]ethyl}benzamide], the Emax under setting [1] was found to be 21%. Further, the EC50 (A549 cells) worked out at 37 nM.

Consider `NC(=O)Cc1c(F)cccc1CC[C@]1(O)CCC2=Cc3c(cnn3-c3ccc(F)cc3)C[C@@]21C1CC1` [Example 61, 2-(2-{2-[(4aR,5R)-4a-Cyclopropyl-1-(4-fluorophenyl)-5-hydroxy-1,4,4a,5,6,7-hexahydrocyclopenta[f]indazol-5-yl]ethyl}-6-fluorophenyl)acetamide], for which, under setting [1], the Emax was 13%. For the same compound, under “A549 cells”, the EC50 was 21 nM.

As to `COc1ccnc(CC[C@]2(O)CCC3=Cc4c(cnn4-c4ccc(F)cc4)C[C@@]32C2CC2)c1C(N)=O` [Example 54, 2-{2-[(4aR,5R)-4a-Cyclopropyl-1-(4-fluorophenyl)-5-hydroxy-1,4,4a,5,6,7-hexahydrocyclopenta[f]indazol-5-yl]ethyl}-4-methoxypyridine-3-carboxamide], the Emax under setting [1] stood at 23%. In addition, the EC50 (A549 cells) worked out at 35 nM.

`CC[C@]12Cc3cnn(-c4ccc(F)cc4)c3C=C1CC[C@@]2(O)CCc1ccccc1CCC(N)=O` [Example 22, 3-(2-{2-[(4aS,5R)-4a-Ethyl-1-(4-fluorophenyl)-5-hydroxy-1,4,4a,5,6,7-hexahydrocyclopenta[f]indazol-5-yl]ethyl}phenyl)propanamide]: the Emax under setting [1] was found to be 28%. The EC50 (A549 cells) is 123 nM.

Turning to `N#Cc1ccccc1CC[C@]1(O)CCC2=Cc3c(cnn3-c3cccnc3)C[C@@]21C1CC1` [Example 30, 2-{2-[(4aR,5R)-4a-Cyclopropyl-5-hydroxy-1-(pyridin-3-yl)-1,4,4a,5,6,7-hexahydrocyclopenta[f]indazol-5-yl]ethyl}benzonitrile], under setting [1], the Emax came out at 4%. In addition, the EC50 (A549 cells) worked out at 126 nM.

As for `NC(=O)CNC(=O)c1cccnc1CC[C@]1(O)CCC2=Cc3c(cnn3-c3ccc(F)cc3)C[C@@]21C1CC1` [Example 43, N-(2-Amino-2-oxoethyl)-2-{2-[(4aR,5R)-4a-cyclopropyl-1-(4-fluorophenyl)-5-hydroxy-1,4,4a,5,6,7-hexahydrocyclopenta[f]indazol-5-yl]ethyl}pyridine-3-carboxamide], the Emax under setting [1] is 47%. In addition, the EC50 (A549 cells) was 260 nM.

For the compound `CC[C@]12Cc3cnn(-c4ccc(F)cc4)c3C=C1CC[C@@]2(O)CC(O)c1cncc(F)c1` (stereo partly drawn) [Example 73, (4aS,5R)-4a-Ethyl-1-(4-fluorophenyl)-5-[2-(5-fluoropyridin-3-yl)-2-hydroxyethyl]-1,4,4a,5,6,7-hexahydrocyclopenta[f]indazol-5-ol], the Emax under setting [1] came out at 34%. In addition, the EC50 (A549 cells) worked out at 101 nM.

In the case of `CC[C@]12Cc3cnn(-c4ccc(F)cc4)c3C=C1CC[C@@]2(O)CCc1cc(C)ccn1` [Example 33, (4aS,5R)-4a-Ethyl-1-(4-fluorophenyl)-5-[2-(4-methylpyridin-2-yl)ethyl]-1,4,4a,5,6,7-hexahydrocyclopenta[f]indazol-5-ol], under setting [1], the Emax is 27%. Also, the EC50 (A549 cells) is 72 nM.

`CC[C@]12Cc3cnn(-c4cccnc4)c3C=C1CC[C@@]2(O)CCc1cccc(F)c1C(N)=O` [Example 14, 2-{2-[(4aS,5R)-4a-Ethyl-5-hydroxy-1-(pyridin-3-yl)-1,4,4a,5,6,7-hexahydrocyclopenta[f]indazol-5-yl]ethyl}-6-fluorobenzamide]: the Emax under setting [1] is 51%. The EC50 (A549 cells) stood at 88 nM.

For `CC[C@]12Cc3cnn(-c4cccc(F)c4)c3C=C1CC[C@@]2(O)CCc1ccccc1C(N)=O` [Example 11, 2-{2-[(4aS,5R)-4a-Ethyl-1-(3-fluorophenyl)-5-hydroxy-1,4,4a,5,6,7-hexahydrocyclopenta[f]indazol-5-yl]ethyl}benzamide], the Emax under setting [1] is 41%. Under “A549 cells”, the EC50 was found to be 83 nM.

As to `CC[C@]12Cc3cnn(-c4ccccc4)c3C=C1CC[C@@]2(O)CCc1ccccc1C(N)=O` [Example 20, 2-{2-[(4aS,5R)-4a-Ethyl-5-hydroxy-1-phenyl-1,4,4a,5,6,7-hexahydrocyclopenta[f]indazol-5-yl]ethyl}benzamide], the maximal response (Emax) under setting [1] is 51%. Moreover, the EC50 (A549 cells) came to 45 nM.

Consider `CC[C@]12Cc3cnn(-c4ccc(F)cc4)c3C=C1CC[C@@]2(O)CC(O)c1c(F)ccnc1Cl` (stereo partly drawn) [Example 74, (4aS,5R)-5-[2-(2-Chloro-4-fluoropyridin-3-yl)-2-hydroxyethyl]-4a-ethyl-1-(4-fluorophenyl)-1,4,4a,5,6,7-hexahydrocyclopenta[f]indazol-5-ol], for which the Emax under setting [1] is 41%. Further, where the note is “A549 cells”, the EC50 was found to be 65 nM.

In the case of `COc1cccc(CC[C@]2(O)CCC3=Cc4c(cnn4-c4ccc(F)cc4)C[C@@]32C2CC2)c1C(N)=O` [Example 38, 2-{2-[(4aR,5R)-4a-Cyclopropyl-1-(4-fluorophenyl)-5-hydroxy-1,4,4a,5,6,7-hexahydrocyclopenta[f]indazol-5-yl]ethyl}-6-methoxybenzamide], the maximal response (Emax) under setting [1] is 11%. In addition, the EC50 (A549 cells) turned out to be 10 nM.

For orientation: Emax means the size of the effect at its maximum, as opposed to the concentration needed.
